Measured values taken from patent US9067937B2 (priority 2012, dated 2015).
Structures can show the parent of a compound that is named as a salt.

Tests used:
MELK = MELK (Homo sapiens, UniProt Q14680); experiment: Kinase assay (IMAP fluorescence polarization, FITC-labeled histone H3 peptide); type: biochemical; conditions: 50 micro-M ATP
Protocol: MELK activity was determined in the presence or absence of compounds using fluorescein isothiocyanate-labeled (FITC-labeled) histone H3 peptide as a substrate. […] The serially diluted compounds, 0.8 ng/micro-L […] (Carna Biosciences) and 100 nM FITC-labeled histone H3 peptide were reacted in a reaction buffer (20 mM HEPES, 0.01% Tween-20, 0.3 mM MgCl2, 2 mM dithiothreitol, 50 micro-M ATP, pH 7.4) at room temperature for 1 hour. The reaction was stopped by the addition of three fold assay volume of progressive binding solution. […] IC50 values were calculated by nonlinear four parameter fit using SigmaPlot, version 10.0 (Systat Software, Inc.).

22Rv1 cells = experiment: Cell-based assay, anti-proliferative activity (Cell Counting Kit-8, 72 hours); design: species or system human; conditions: Homo sapiens, 22Rv1, 72 h, read-out: IC50 (μM) (22Rvl)
Protocol: (§1) Active candidate inhibitors against MELK were evaluated for their target-specific cytotoxicity using 22Rv1, T47D, A549, DU4475 and HT-1197 cells was used for negative control. 100 micro-L of cell suspension was seeded onto 96-well microtiter plate (ViewPlate-96FTC, PerkinElmer). The initial cell concentration of 22Rv1, T47D, A549, DU4475, and HT1197 were 3,000 cells/well, 2,000 cells/well and 2,500 cells/well, respectively. Cellular growth was determined using Cell Counting Kit-8 (DOJINDO) at 72 hours after the exposure of the candidate inhibitors. […] Accurate IC50 values were calculated as described previously.

A549 cells = experiment: as above; design: species or system human; conditions: Homo sapiens, A549, 72 h, read-out: IC50 (μM) (A549)
Protocol: as §1

DU4475 cells = experiment: as above; design: species or system human; conditions: Homo sapiens, DU-4475, 72 h, read-out: IC50 (μM) (DU4475)
Protocol: as §1

T47D cells = experiment: as above; design: species or system human; conditions: Homo sapiens, T47D, 72 h, read-out: IC50 (μM) (T47D)
Protocol: as §1

HT1197 cells = experiment: Cell-based assay, anti-proliferative activity, MELK-negative control (Cell Counting Kit-8, 72 hours); design: species or system human; conditions: Homo sapiens, HT1197, 72 h, read-out: IC50 (μM) (HTll97)
Protocol: as §1, with “100” for “Active candidate inhibitors against MELK were evaluated for their target-specific cytotoxicity using 22Rv1, T47D, A549, DU4475 and HT-1197 cells was used for negative control. 100”

Sequence of MELK (Q14680 whole entry, looked up): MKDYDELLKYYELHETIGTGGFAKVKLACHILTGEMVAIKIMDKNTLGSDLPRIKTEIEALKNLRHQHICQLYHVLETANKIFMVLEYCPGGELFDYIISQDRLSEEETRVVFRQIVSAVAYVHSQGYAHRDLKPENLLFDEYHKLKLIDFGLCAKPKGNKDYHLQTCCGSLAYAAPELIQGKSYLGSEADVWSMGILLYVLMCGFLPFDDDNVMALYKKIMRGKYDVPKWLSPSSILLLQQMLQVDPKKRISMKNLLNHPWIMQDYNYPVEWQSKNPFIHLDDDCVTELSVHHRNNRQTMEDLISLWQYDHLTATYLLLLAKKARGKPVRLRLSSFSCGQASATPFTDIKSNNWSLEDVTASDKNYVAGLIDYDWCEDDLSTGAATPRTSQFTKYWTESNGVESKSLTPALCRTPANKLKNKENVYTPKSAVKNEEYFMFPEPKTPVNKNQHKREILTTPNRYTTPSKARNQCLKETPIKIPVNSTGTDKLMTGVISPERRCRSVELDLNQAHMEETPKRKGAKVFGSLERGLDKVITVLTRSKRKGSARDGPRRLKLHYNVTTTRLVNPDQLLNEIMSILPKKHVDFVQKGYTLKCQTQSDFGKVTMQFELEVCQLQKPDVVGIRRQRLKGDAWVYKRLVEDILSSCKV

N[C@@H]1CCCN(c2ccc(Nc3c(C(=O)C4CC4)cnc4ccc(-c5cc(Cl)c(O)c(Cl)c5)nc34)cn2)C1 [Example 201, (R)-(4-{[6-(3-aminopiperidin-1-yl)pyridin-3-yl]amino}-6-(3,5-dichloro-4-hydroxyphenyl)-1,5-naphthyridin-3-yl) (cyclopropyl)methanone]
IC50 (MELK): 0.00093 µM | IC50 (22Rv1 cells): 0.0061 µM | IC50 (A549 cells): 0.0061 µM | IC50 (DU4475 cells): 0.003 µM | IC50 (T47D cells): 0.0025 µM | IC50 (HT1197 cells): 0.032 µM

CN(C)[C@H]1CC[C@H](Nc2c(S(C)(=O)=O)cnc3ccc(-c4cc(F)c(O)c(Cl)c4)nc23)CC1 [Example 32, 2-Chloro-4-(8-(trans-4-(dimethylamino)-cyclohexylamino)-7-(methylsulfonyl)-1,5-naphthyridin-2-yl)-6-fluorophenol dihydrochloride]
IC50 (MELK): 0.0016 µM | IC50 (22Rv1 cells): 0.046 µM | IC50 (A549 cells): 0.2 µM | IC50 (DU4475 cells): 0.0063 µM | IC50 (T47D cells): 0.024 µM | IC50 (HT1197 cells): 3.1 µM

CC(=O)c1cnc2ccc(-c3ccc(O)cc3)nc2c1N[C@H]1CC[C@H](CN(C)C)CC1 [Example 88, 1-(4-{trans-4-[(Dimethylamino)methyl]cyclohexylamino}-6-(4-hydroxyphenyl)-1,5-naphthyridin-3-yl)ethanone dihydrochloride]
IC50 (MELK): 0.0045 µM | IC50 (22Rv1 cells): 0.04 µM | IC50 (A549 cells): 0.023 µM | IC50 (DU4475 cells): 0.021 µM | IC50 (T47D cells): 0.031 µM | IC50 (HT1197 cells): 0.039 µM

CC(=O)c1cnc2ccc(-c3cc(F)c(O)c(Cl)c3)nc2c1N[C@H]1CC[C@@H](CN(C)C)CC1 [Example 93, 1-{6-(3-Chloro-5-fluoro-4-hydroxyphenyl)-4-({cis-4-[(dimethylamino)methyl]cyclohexyl}-amino)-1,5-naphthyridin-3-yl}ethanone dihydrochloride]
IC50 (MELK): 0.0011 µM | IC50 (22Rv1 cells): 0.032 µM | IC50 (A549 cells): 0.039 µM | IC50 (DU4475 cells): 0.011 µM | IC50 (T47D cells): 0.02 µM | IC50 (HT1197 cells): 0.19 µM

CC(=O)c1cnc2ccc(-c3cc(Cl)c(O)c(Cl)c3)nc2c1N[C@H]1CC[C@H](CN2CCCC2)CC1 [Example 61, 1-{6-(3,5-Dichloro-4-hydroxyphenyl)-4-[trans-4-(pyrrolidin-1-ylmethyl)cyclohexylamino]-1,5-naphthyridin-3-yl}ethanone dihydrochloride]
IC50 (MELK): 0.0004 µM | IC50 (22Rv1 cells): 0.011 µM | IC50 (A549 cells): 0.012 µM | IC50 (DU4475 cells): 0.0044 µM | IC50 (T47D cells): 0.0069 µM | IC50 (HT1197 cells): 0.15 µM

CC(=O)c1cnc2ccc(-c3cc(F)c(O)c(Cl)c3)nc2c1N[C@H]1CC[C@H](NC(=O)C(N)C(C)C)CC1 (stereo partly drawn) [Example 69, N-(trans-4-{[3-Acetyl-6-(3-chloro-5-fluoro-4-hydroxyphenyl)-1,5-naphthyridin-4-yl]amino}-cyclohexyl)-2-amino-3-methylbutanamide dihydrochloride]
IC50 (MELK): 0.0012 µM | IC50 (22Rv1 cells): 0.025 µM | IC50 (A549 cells): 0.064 µM | IC50 (DU4475 cells): 0.013 µM | IC50 (T47D cells): 0.007 µM | IC50 (HT1197 cells): 2.5 µM

COc1cc(-c2ccc3ncc(S(C)(=O)=O)c(Nc4ccc(OCCN(C)C)nc4)c3n2)cc(Cl)c1O [Example 26, 2-Chloro-4-(8-(6-(2-(dimethylamino)-ethoxy)pyridin-3-ylamino)-7-(methylsulfonyl)-1,5-naphthyridin-2-yl)-6-methoxyphenol dihydrochloride]
IC50 (MELK): 0.01 µM | IC50 (22Rv1 cells): 4.1 µM | IC50 (A549 cells): 3.1 µM | IC50 (DU4475 cells): 1.6 µM | IC50 (T47D cells): 1 µM | IC50 (HT1197 cells): 15 µM

CC(=O)c1cnc2ccc(-c3cc(Cl)c(O)c(Cl)c3)nc2c1N[C@H]1CC[C@H](CN2CCOCC2)CC1 [Example 47, 1-[6-(3,5-Dichloro-4-hydroxyphenyl)-4-{[trans-4-(morpholinomethyl)cyclohexyl]amino}-1,5-naphthyridin-3-yl]ethanone]
IC50 (MELK): 0.01 µM | IC50 (22Rv1 cells): 0.034 µM | IC50 (A549 cells): 0.02 µM | IC50 (DU4475 cells): 0.009 µM | IC50 (T47D cells): 0.015 µM | IC50 (HT1197 cells): 0.16 µM

CN(C)CCOc1ccc(Nc2c(S(C)(=O)=O)cnc3ccc(-c4cc(Cl)c(O)c(Cl)c4)nc23)cn1 [Example 24, 2,6-Dichloro-4-(8-{6-[2-(dimethylamino)ethoxy]pyridin-3-ylamino}-7-(methylsulfonyl)-1,5-naphthyridin-2-yl)phenol hydrochloride]
IC50 (MELK): 0.0053 µM | IC50 (22Rv1 cells): 1.8 µM | IC50 (A549 cells): 5.1 µM | IC50 (DU4475 cells): 0.38 µM | IC50 (T47D cells): 0.58 µM | IC50 (HT1197 cells): 15 µM

CC(=O)c1cnc2ccc(-c3cc(Cl)c(O)c(Cl)c3)nc2c1NC1CCN(C)CC1 [Example 45, 1-{6-(3,5-Dichloro-4-hydroxyphenyl)-4-[(1-methylpiperidin-4-yl)amino]-1,5-naphthyridin-3-yl}ethanone]
IC50 (MELK): 0.0058 µM | IC50 (22Rv1 cells): 0.096 µM | IC50 (A549 cells): 0.065 µM | IC50 (DU4475 cells): 0.096 µM | IC50 (T47D cells): 0.086 µM | IC50 (HT1197 cells): 0.45 µM

CC(=O)c1cnc2ccc(-c3cc(Cl)c(O)c(Cl)c3)nc2c1N[C@H]1CC[C@H](CCN(C)C)CC1 [Example 9, 1-[6-(3,5-Dichloro-4-hydroxyphenyl)-4-({trans-4-[2-(dimethylamino)ethyl]cyclohexyl}amino)-1,5-naphthyridin-3-yl]ethanone dihydrochloride]
IC50 (MELK): 0.0007 µM | IC50 (22Rv1 cells): 0.011 µM | IC50 (A549 cells): 0.013 µM | IC50 (DU4475 cells): 0.0055 µM | IC50 (T47D cells): 0.0066 µM | IC50 (HT1197 cells): 0.27 µM

CC(=O)c1cnc2ccc(-c3ccc4[nH]cnc4c3)nc2c1N[C@H]1CC[C@H](CN(C)C)CC1 [Example 55, 1-(6-(1H-Benzo[d]imidazol-5-yl)-4-{trans-4-[(dimethylamino)methyl]cyclohexylamino}-1,5-naphthyridin-3-yl)ethanone trihydrochloride]
IC50 (MELK): 0.017 µM | IC50 (22Rv1 cells): 0.3 µM | IC50 (A549 cells): 0.25 µM | IC50 (DU4475 cells): 0.65 µM | IC50 (T47D cells): 0.084 µM | IC50 (HT1197 cells): 2 µM

CC(=O)c1cnc2ccc(-c3ccc(C#N)nc3)nc2c1N[C@H]1CC[C@H](CN(C)C)CC1 [Example 87, 5-(7-Acetyl-8-{trans-4-[(dimethylamino)methyl]cyclohexylamino}-1,5-naphthyridin-2-yl)picolinonitrile dihydrochloride]
IC50 (MELK): 0.0045 µM | IC50 (22Rv1 cells): 0.66 µM | IC50 (A549 cells): 1.8 µM | IC50 (DU4475 cells): 0.74 µM | IC50 (T47D cells): 0.66 µM | IC50 (HT1197 cells): 2 µM

CN(C)CCOc1ccc(Nc2c(S(C)(=O)=O)cnc3ccc(-c4cc(F)c(O)c(Cl)c4)nc23)cn1 [Example 25, 2-Chloro-4-(8-{6-[2-(dimethylamino)ethoxy]pyridin-3-ylamino}-7-(methylsulfonyl)-1,5-naphthyridin-2-yl)-6-fluorophenol dihydrochloride]
IC50 (MELK): 0.019 µM | IC50 (22Rv1 cells): 2.8 µM | IC50 (A549 cells): 5.9 µM | IC50 (DU4475 cells): 0.74 µM | IC50 (T47D cells): 0.7 µM | IC50 (HT1197 cells): 21 µM

CN(C)Cc1ccc(Nc2c(S(C)(=O)=O)cnc3ccc(-c4cc(Cl)c(O)c(Cl)c4)nc23)cc1 [Example 16, 2,6-Dichloro-4-(8-{4-[(dimethylamino)methyl]phenylamino}-7-(methylsulfonyl)-1,5-naphthyridin-2-yl)phenol dihydrochloride]
IC50 (MELK): 0.0028 µM | IC50 (22Rv1 cells): 0.17 µM | IC50 (A549 cells): 0.47 µM | IC50 (DU4475 cells): 0.031 µM | IC50 (T47D cells): 0.078 µM | IC50 (HT1197 cells): 4.4 µM

CC(=O)c1cnc2ccc(-c3cc(F)c(O)c(Cl)c3)nc2c1N[C@H]1CC[C@H](CN(C)C)CC1 [Example 7, 1-{6-(3-Chloro-5-fluoro-4-hydroxyphenyl)-4-({trans-4-[(dimethylamino)methyl]cyclohexyl}-amino)-1,5-naphthyridin-3-yl}ethanone dihydrochloride]
IC50 (MELK): 0.0013 µM | IC50 (22Rv1 cells): 0.0061 µM | IC50 (A549 cells): 0.0097 µM | IC50 (DU4475 cells): 0.0036 µM | IC50 (T47D cells): 0.0035 µM | IC50 (HT1197 cells): 0.11 µM

CCC(=O)c1cnc2ccc(-c3cc(Cl)c(O)c(Cl)c3)nc2c1Nc1ccc(N2CCC[C@H](N)C2)nc1 [Example 207, (S)-1-(4-{[6-(3-aminopiperidin-1-yl)pyridin-3-yl]amino}-6-(3,5-dichloro-4-hydroxyphenyl)-1,5-naphthyridin-3-yl)propan-1-one trihydrochloride]
IC50 (MELK): 0.0016 µM | IC50 (22Rv1 cells): 0.034 µM | IC50 (A549 cells): 0.098 µM | IC50 (DU4475 cells): 0.024 µM | IC50 (T47D cells): 0.018 µM | IC50 (HT1197 cells): 3.9 µM

CC(=O)c1cnc2ccc(-c3cc(Cl)c(O)c(Cl)c3)nc2c1Nc1cnc(N2CCC(N)C2)nc1 (stereo not drawn) [Example 41, 1-{4-[2-(3-Aminopyrrolidin-1-yl)pyrimidin-5-ylamino]-6-(3,5-dichloro-4-hydroxyphenyl)-1,5-naphthyridin-3-yl}ethanone trihydrochloride]
IC50 (MELK): 0.0017 µM | IC50 (22Rv1 cells): 0.052 µM | IC50 (A549 cells): 0.27 µM | IC50 (DU4475 cells): 0.026 µM | IC50 (T47D cells): 0.027 µM | IC50 (HT1197 cells): 100 µM
